Reference: patent US6191115A, “C-terminus modified heptapeptide LHRH analogs” (Abbott Laboratories, priority 1999, dated 2001)
Non-standard residues stand in square brackets, D forms with d. Residues, ends and D or L forms follow the SMILES beside them. *: point of attachment. dPhe(4-Cl) = N[C@H](Cc1ccc(Cl)cc1)C(=O)O; NH(2-morpholinoethyl) = C(CN1CCOCC1)N*; d2Nal = N[C@H](Cc1ccc2ccccc2c1)C(=O)O; NMeY = CN[C@@H](Cc1ccc(O)cc1)C(=O)O; d3Pal = N[C@H](Cc1cccnc1)C(=O)O; Nicotinoyl = O=C(c1cccnc1)*; NHCH2CH2OH = OCCN*

Target: T1, LH release from rat pituitary cells (Rattus norvegicus, UniProt P30969)
T1 sequence (P30969 1-327): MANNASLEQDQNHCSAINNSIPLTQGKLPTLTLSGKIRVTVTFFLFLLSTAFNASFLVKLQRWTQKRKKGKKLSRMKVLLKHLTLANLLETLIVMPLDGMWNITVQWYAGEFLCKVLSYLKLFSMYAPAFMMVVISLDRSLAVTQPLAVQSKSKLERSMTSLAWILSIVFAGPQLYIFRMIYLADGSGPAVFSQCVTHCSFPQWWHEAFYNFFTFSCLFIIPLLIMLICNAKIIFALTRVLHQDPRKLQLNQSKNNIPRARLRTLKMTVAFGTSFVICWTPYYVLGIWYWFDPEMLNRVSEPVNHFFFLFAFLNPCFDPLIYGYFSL
Experiment: in vitro inhibition of LH release from rat pituitary cells (pA2)
Assay type: cell-based
Settings: pA2 = negative logarithm of antagonist concentration required to shift the response curve of the agonist leuprolide to two-fold higher concentration
Description: Representative compounds of the present invention were evaluated in vitro for inhibition of LH release from rat pituitary cells (pA2). Methods for the assay procedures arc described by F. Haviv, et al. J. Med. Chem., 32:2340-2344 (1989). Values of pA2 are the negative logarithms of the concentration of the particular antagonist test compound required to shift the response curve produced by the agonist leuprolide to two-fold higher concentration. Typically values of 7.0 or greater are indicative of good LHRH antagonist potency, with values of 8.0 or greater being preferred. Leuprolide LHRH agonist, disclosed and claimed in U.S. Pat. No. 4,005,063, has the structure 5-oxo-Pro^1 -His^2 -Trp^3 -Ser^4 -Tyr^5 -D-Leu^6 -Leu^7 -Arg^8 -Pro^9 -NHEt.

Row | SMILES | LHRH antagonist potency (pA2)
1 | CC(=O)N[C@H](Cc1ccc2ccccc2c1)C(=O)N[C@H](Cc1ccc(Cl)cc1)C(=O)N[C@H](Cc1cccnc1)C(=O)N[C@@H](CO)C(=O)N(C)[C@@H](Cc1ccc(O)cc1)C(=O)N[C@H](CCCCNC(=O)c1cccnc1)C(=O)N[C@@H](CC(C)C)C(=O)NCCN1CCOCC1 [Example 27, NAcD2Nal-D4ClPhe-D3Pal-Ser-NMeTyr-DLys(Nic)-Leu-NH--CH2 --CH2 -(1-norpholine)] (Ac-[d2Nal][dPhe(4-Cl)][d3Pal]S[NMeY][dK](Nicotinoyl)L-{NH(2-morpholinoethyl)}) | 8.30
2 | CC(=O)N[C@H](Cc1ccc2ccccc2c1)C(=O)N[C@H](Cc1ccc(Cl)cc1)C(=O)N[C@H](Cc1cccnc1)C(=O)N[C@@H](CO)C(=O)N(C)[C@@H](Cc1ccc(O)cc1)C(=O)N[C@H](CCCCNC(=O)c1cccnc1)C(=O)N[C@@H](CC(C)C)C(=O)NCCO [Example 7, NAcD2Nal-D4ClPhe-D3Pal-Ser-NMeTyr-DLys(Nic)-Leu-NH--(CH2)2 OH] (Ac-[d2Nal][dPhe(4-Cl)][d3Pal]S[NMeY][dK](Nicotinoyl)L-NHCH2CH2OH) | 8.95
